Source: patent publication US20150141433A1, “N-ARYLMETHYL SULFONAMIDE NEGATIVE MODULATORS OF NR2A” (Mnemosyne Pharmaceuticals, Inc., priority 2013, published 2015)

Biological target: T1, NR1/NR2A (Homo sapiens, UniProt Q05586+Q12879)
T1 construct: host or cells: HEK293 (tetracycline-inducible NR2A expression)
Assay: FDSS Ca2+ influx inhibition assay in HEK293 cells expressing NR1/NR2A
Assay type: cell-based
Conditions: 3 μM glutamate, 3 μM glycine, 1 mM Ca2+, Ca2+ influx inhibition relative to MK801, read-out: NR2A IC50
Method: Cell Culture and plating: HEK293 cells expressing NR1/NR2A (Chantest, Cleveland, Ohio) were grown to 70-80% confluency as an adherent monolayer in standard tissue culture flasks at 37° C., 5% CO2 per supplier's instructions.
After induction, cell culture medium was removed and cells were rinsed once with Ca^2+ and Mg^2+-free Dulbecco's phosphate buffered saline. Cells were then removed from the flask using TrypLE™ Express (Life Technologies) according to the manufacturer's instructions and collected to 50 ml centrifuge tubes. Following two washes in Ca^27 Mg^2′-free HBSS with 20 mM HEPES (HHnoCa), cells were counted and viability assessed using trypan blue. To load cells with Ca^2′-sensitive dye, they were resuspended in fluo-8 plus Component B (AAT Bioquest Products) diluted in HHnoCa and incubated 15 minutes at 37° C., followed by 30 minutes at room temp (in dark). Cells were then washed and resuspended in HHnoCa to remove extracellular dye and plated in 384-well plates (Falcon, uncoated) at 20,000-30,000 cells/well in a final volume of 25 μL/well.
FDSS Assay: To each well of the plate, 10 μLtest compound, control (MK801) or HHnoCa buffer was added to a final concentration of 10 μM with a final concentration of DMSO of 0.1%. Following 10 minutes pre-incubation in the dark, plates are loaded onto the Hamamatsu FDSS 6000. After collecting baseline fluorescence images, 3 μM glutamate, 3 μM glycine, and 1 mM Ca^2+ in HHnoCa buffer is added to each well, and Ca^2+ is recorded for 3 minutes. Data were processed by computing ratio of fluorescence at the end of data collection to baseline fluorescence to assess degree of Ca^2+ influx inhibition relative to that observed in MK801.

T1 sequence (Q12879 23-1464, other chains not shown): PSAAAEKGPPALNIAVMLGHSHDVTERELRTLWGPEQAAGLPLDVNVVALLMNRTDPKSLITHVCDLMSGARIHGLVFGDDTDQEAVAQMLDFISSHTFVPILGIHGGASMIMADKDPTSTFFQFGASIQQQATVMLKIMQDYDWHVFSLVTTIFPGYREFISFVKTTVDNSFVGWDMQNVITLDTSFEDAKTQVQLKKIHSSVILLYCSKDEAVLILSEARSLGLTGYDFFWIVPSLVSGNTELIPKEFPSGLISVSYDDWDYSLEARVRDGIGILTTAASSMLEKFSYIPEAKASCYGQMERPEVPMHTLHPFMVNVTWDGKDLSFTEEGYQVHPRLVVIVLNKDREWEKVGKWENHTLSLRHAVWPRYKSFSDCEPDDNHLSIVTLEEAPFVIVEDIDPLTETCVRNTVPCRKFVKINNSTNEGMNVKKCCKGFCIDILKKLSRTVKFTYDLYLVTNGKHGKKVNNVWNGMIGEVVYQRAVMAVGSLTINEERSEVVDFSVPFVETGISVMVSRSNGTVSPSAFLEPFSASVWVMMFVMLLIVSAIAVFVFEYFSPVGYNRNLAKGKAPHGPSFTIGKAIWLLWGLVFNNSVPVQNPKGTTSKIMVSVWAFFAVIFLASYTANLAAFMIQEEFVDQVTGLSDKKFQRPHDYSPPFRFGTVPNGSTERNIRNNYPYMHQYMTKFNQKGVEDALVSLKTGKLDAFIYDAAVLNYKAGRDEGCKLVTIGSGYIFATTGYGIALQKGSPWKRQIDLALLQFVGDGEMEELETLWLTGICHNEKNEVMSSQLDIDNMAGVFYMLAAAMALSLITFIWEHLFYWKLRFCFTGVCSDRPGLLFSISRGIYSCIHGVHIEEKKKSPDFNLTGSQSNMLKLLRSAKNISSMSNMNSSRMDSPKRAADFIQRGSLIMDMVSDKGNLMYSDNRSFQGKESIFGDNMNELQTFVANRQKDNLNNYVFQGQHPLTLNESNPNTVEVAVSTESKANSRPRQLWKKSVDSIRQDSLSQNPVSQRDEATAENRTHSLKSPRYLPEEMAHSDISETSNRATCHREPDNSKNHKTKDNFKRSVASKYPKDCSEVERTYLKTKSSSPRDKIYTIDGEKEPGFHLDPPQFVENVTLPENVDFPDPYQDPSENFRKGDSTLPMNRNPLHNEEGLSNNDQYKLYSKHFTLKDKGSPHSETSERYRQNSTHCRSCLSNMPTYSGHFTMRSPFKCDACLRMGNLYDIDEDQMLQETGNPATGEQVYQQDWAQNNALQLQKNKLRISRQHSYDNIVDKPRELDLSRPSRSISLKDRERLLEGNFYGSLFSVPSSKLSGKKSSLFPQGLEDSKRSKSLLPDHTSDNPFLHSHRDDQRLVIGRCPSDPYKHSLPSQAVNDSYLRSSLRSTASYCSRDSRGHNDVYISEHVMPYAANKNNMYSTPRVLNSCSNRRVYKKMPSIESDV

Compound | IC50 [nM]
Cc1csc(CNC(=O)c2cnc(CNS(=O)(=O)c3ccc(F)c(Cl)c3)cn2)n1 [5-(3-chloro-4-fluorobenzenesulfon-amidomethyl)-N-[(4-methyl-1,3-thiazol-2-yl)methyl]pyrazine-2-carboxamide] | ≥ 10000
Cc1ccncc1CNC(=O)c1cnc(CNS(=O)(=O)c2ccc(F)c(Cl)c2)cn1 [5-(3-chloro-4-fluorobenzenesulfon-amidomethyl)-N-[(4-methylpyridin-3-yl)methyl]pyrazine-2-carboxamide] | 108
Cc1ccncc1CNC(=O)c1ccc(CNS(=O)(=O)c2ccc(F)c(Cl)c2)cn1 [5-(3-chloro-4-fluorobenzenesulfon-amidomethyl)-N-[(4-methylpyridin-3-yl)methyl]pyridine-2-carboxamide] | 187
O=C(NCc1cncc(F)c1)c1cnc(CNS(=O)(=O)c2ccc(F)c(Cl)c2)cn1 [5-(3-chloro-4-fluorobenzenesulfon-amidomethyl)-N-[(5-fluoropyridin-3-yl)methyl]pyrazine-2-carboxamide] | 1100
Cc1nnc(CNC(=O)c2cnc(CNS(=O)(=O)c3ccc(F)c(Cl)c3)cn2)o1 [5-(3-chloro-4-fluorobenzenesulfon-amidomethyl)-N-[(5-methyl-1,3,4-oxadiazol-2-yl)methyl]pyrazine-2-carboxamide] | 2430
Cc1nnc(CNC(=O)c2ccc(CNS(=O)(=O)c3ccc(F)c(Cl)c3)cn2)o1 [5-(3-chloro-4-fluorobenzenesulfon-amidomethyl)-N-[(5-methyl-1,3,4-oxadiazol-2-yl)methyl]pyridine-2-carboxamide] | 2830
Cc1nnc(CNC(=O)c2cnc(CNS(=O)(=O)c3ccc(F)c(Cl)c3)cn2)s1 [5-(3-chloro-4-fluorobenzenesulfon-amidomethyl)-N-[(5-methyl-1,3,4-thiadiazol-2-yl)methyl]pyrazine-2-carboxamide] | 624
Cc1nnc(CNC(=O)c2ccc(CNS(=O)(=O)c3ccc(F)c(Cl)c3)cn2)s1 [5-(3-chloro-4-fluorobenzenesulfon-amidomethyl)-N-[(5-methyl-1,3,4-thiadiazol-2-yl)methyl]pyridine-2-carboxamide] | 1020
Cc1cnc(CNC(=O)c2cnc(CNS(=O)(=O)c3ccc(F)c(Cl)c3)cn2)cn1 [5-(3-chloro-4-fluorobenzenesulfon-amidomethyl)-N-[(5-methylpyrazin-2-yl)methyl]pyrazine-2-carboxamide] | 1250
COc1ccc(CNC(=O)c2ccc(CNS(=O)(=O)c3ccc(F)c(Cl)c3)cn2)cn1 [5-(3-chloro-4-fluorobenzenesulfon-amidomethyl)-N-[(6-methoxypyridin-3-yl)methyl]pyridine-2-carboxamide] | 2000
Cc1ncc(CNC(=O)c2cnc(CNS(=O)(=O)c3cccc(Cl)c3)c(C)n2)s1 [5-(3-chlorobenzenesulfon-amidomethyl)-6-methyl-N-[(2-methyl-1,3-thiazol-5-yl)methyl]pyrazine-2-carboxamide] | 39.5
Cc1ncc(CNC(=O)c2cnc(CNS(=O)(=O)c3cccc(Cl)c3)cn2)s1 [5-(3-chlorobenzenesulfon-amidomethyl)-N-[(2-methyl-1,3-thiazol-5-yl)methyl]pyrazine-2-carboxamide] | 839
Cc1ncc(CNC(=O)c2ccc(CNS(=O)(=O)c3cccc(Cl)c3)cn2)s1 [5-(3-chlorobenzenesulfon-amidomethyl)-N-[(2-methyl-1,3-thiazol-5-yl)methyl]pyridine-2-carboxamide] | 1040
Cc1ncc(CNC(=O)c2cnc(CNS(=O)(=O)c3ccc(Cl)c(F)c3)c(C)n2)s1 [5-(4-chloro-3-fluorobenzenesulfon-amidomethyl)-6-methyl-N-[(2-methyl-1,3-thiazol-5-yl)methyl]pyrazine-2-carboxamide] | 1020
Cc1ncc(CNC(=O)c2ccc(CNS(=O)(=O)c3ccc(Cl)c(F)c3)cn2)s1 [5-(4-chloro-3-fluorobenzenesulfon-amidomethyl)-N-[(2-methyl-1,3-thiazol-5-yl)methyl]pyridine-2-carboxamide] | 7450
Cc1ncc(CNC(=O)c2cnc(CNS(=O)(=O)c3ccc(F)cc3)c(C)n2)s1 [5-(4-fluorobenzenesulfon-amidomethyl)-6-methyl-N-[(2-methyl-1,3-thiazol-5-yl)methyl]pyrazine-2-carboxamide] | 137
Cc1ncc(CNC(=O)c2cnc(CNS(=O)(=O)c3ccc(F)cc3)cn2)s1 [5-(4-fluorobenzenesulfon-amidomethyl)-N-[(2-methyl-1,3-thiazol-5-yl)methyl]pyrazine-2-carboxamide] | 5510
Cc1ncc(CNC(=O)c2ccc(CNS(=O)(=O)c3ccc(F)cc3)cn2)s1 [5-(4-fluorobenzenesulfon-amidomethyl)-N-[(2-methyl-1,3-thiazol-5-yl)methyl]pyridine-2-carboxamide] | 2840
Cc1ncc(CNC(=O)c2cnc(CNS(=O)(=O)c3cc(Cl)ccc3F)c(C)n2)s1 [5-(5-chloro-2-fluorobenzenesulfon-amidomethyl)-6-methyl-N-[(2-methyl-1,3-thiazol-5-yl)methyl]pyrazine-2-carboxamide] | 8060
O=C(NCc1cnccn1)c1ccc(CNS(=O)(=O)c2ccc(F)c(Cl)c2)nc1 [6-(3-chloro-4-fluorobenzenesulfon-amidomethyl)-N-(pyrazin-2-ylmethyl)pyridine-3-carboxamide] | 790
O=C(NCc1cccnc1)c1ccc(CNS(=O)(=O)c2ccc(F)c(Cl)c2)nc1 [6-(3-chloro-4-fluorobenzenesulfon-amidomethyl)-N-(pyridin-3-ylmethyl)pyridine-3-carboxamide] | 11000
C[C@@H](NC(=O)c1ccc(CNS(=O)(=O)c2ccc(F)c(Cl)c2)nc1)c1cncs1 [6-(3-chloro-4-fluorobenzenesulfon-amidomethyl)-N-[(1R)-1-(1,3-thiazol-5-yl)ethyl]pyridine-3-carboxamide] | ≥ 10000
Cc1ccncc1CNC(=O)c1ccc(CNS(=O)(=O)c2ccc(F)c(Cl)c2)nc1 [6-(3-chloro-4-fluorobenzenesulfon-amidomethyl)-N-[(4-methylpyridin-3-yl)methyl]pyridine-3-carboxamide] | 9750
Cc1cnc(CNC(=O)c2ccc(CNS(=O)(=O)c3ccc(F)c(Cl)c3)nc2)cn1 [6-(3-chloro-4-fluorobenzenesulfon-amidomethyl)-N-[(5-methylpyrazin-2-yl)methyl]pyridine-3-carboxamide] | 630
Cn1ccnc1CNC(=O)c1ccc(CNS(=O)(=O)c2ccc(F)c(Cl)c2)nc1 [6-(3-chloro-4-fluorobenzenesulfon-amidomethyl)-N-[(l-methyl-1H-imidazol-2-yl)methyl]pyridine-3-carboxamide] | 108
Cc1ncc(CNC(=O)c2cnc(CNS(=O)(=O)c3cccs3)cn2)s1 [N-[(2-methyl-1,3-thiazol-5-yl)methyl]-5-(thiophene-2-sulfonamidomethyl) pyrazine-2-carboxamide] | 3770
Cc1ncc(CNC(=O)c2ccc(CNS(=O)(=O)c3cccs3)cn2)s1 [N-[(2-methyl-1,3-thiazol-5-yl)methyl]-5-(thiophene-2-sulfonamidomethyl) pyridine-2-carboxamide] | 4020

Same assay, conditions: binned NR2A inhibition concentration, read-out: Binned Activity

Compound | IC50 [nM]
Cc1csc(CNC(=O)c2cnc(CNS(=O)(=O)c3ccc(F)c(Cl)c3)cn2)n1 [5-(3-chloro-4-fluorobenzenesulfon-amidomethyl)-N-[(4-methyl-1,3-thiazol-2-yl)methyl]pyrazine-2-carboxamide] | > 10000
C[C@@H](NC(=O)c1ccc(CNS(=O)(=O)c2ccc(F)c(Cl)c2)nc1)c1cncs1 [6-(3-chloro-4-fluorobenzenesulfon-amidomethyl)-N-[(1R)-1-(1,3-thiazol-5-yl)ethyl]pyridine-3-carboxamide] | > 10000
